Laboratory results taken from the NIST ThermoML archive (doi:10.1021/je1002829).
Numbers after ± are expanded uncertainties.

Test: xn = mol fraction of the nth substance listed
Details: for mass density: 101 kPa, Liquid, Pycnometric method

CCCC(=O)O [butanoic acid] + O gave a surface tension liquid-gas (293.15 K, x1 = 0.00475) of 50.5 ± 1.1 mN/m, a surface tension liquid-gas (293.15 K, x1 = 0.00655) of 45.88 ± 1 mN/m and a surface tension liquid-gas (293.15 K, x1 = 0.00903) of 41.59 ± 0.98 mN/m. It also gave a surface tension liquid-gas (293.15 K, x1 = 0.00998) of 40.32 ± 0.97 mN/m, a surface tension liquid-gas (293.15 K, x1 = 0.01274) of 37.41 ± 0.92 mN/m and a surface tension liquid-gas (293.15 K, x1 = 0.01432) of 36.11 ± 0.91 mN/m. It also gave a surface tension liquid-gas (293.15 K, x1 = 0.01655) of 34.6 ± 0.88 mN/m, a surface tension liquid-gas (293.15 K, x1 = 0.03346) of 29.28 ± 0.81 mN/m and a surface tension liquid-gas (293.15 K, x1 = 0.04522) of 28.48 ± 0.8 mN/m. It also gave a surface tension liquid-gas (293.15 K, x1 = 0.05825) of 28.46 ± 0.8 mN/m, a surface tension liquid-gas (293.15 K, x1 = 0.08723) of 28.61 ± 0.8 mN/m and a surface tension liquid-gas (293.15 K, x1 = 0.09948) of 28.52 ± 0.8 mN/m. The surface tension liquid-gas (293.15 K, x1 = 0.1147) was 28.39 ± 0.8 mN/m, the surface tension liquid-gas (293.15 K, x1 = 0.134) was 28.24 ± 0.8 mN/m and the surface tension liquid-gas (293.15 K, x1 = 0.1428) was 28.19 ± 0.8 mN/m. For the same compound, the surface tension liquid-gas (293.15 K, x1 = 0.1767) was 28.21 ± 0.8 mN/m, the mass density (293.15 K, x1 = 0.01655) was 1002.55 ± 0.42 kg/m3 and the mass density (293.15 K, x1 = 0.02141) was 1003.38 ± 0.43 kg/m3. The mass density (293.15 K, x1 = 0.03346) was 1004.38 ± 0.45 kg/m3, the mass density (293.15 K, x1 = 0.03727) was 1004.49 ± 0.46 kg/m3 and the mass density (293.15 K, x1 = 0.04522) was 1004.3 ± 0.48 kg/m3. It also gave a mass density (293.15 K, x1 = 0.04995) of 1004.13 ± 0.49 kg/m3, a mass density (293.15 K, x1 = 0.05825) of 1003.61 ± 0.5 kg/m3 and a mass density (293.15 K, x1 = 0.06959) of 1002.83 ± 0.52 kg/m3. For the same compound, the mass density (293.15 K, x1 = 0.07723) was 1002.34 ± 0.55 kg/m3, the mass density (293.15 K, x1 = 0.09004) was 1001.61 ± 0.54 kg/m3 and the mass density (293.15 K, x1 = 0.09948) was 1001.12 ± 0.55 kg/m3. For the same compound, the mass density (293.15 K, x1 = 0.1172) was 1000.27 ± 0.56 kg/m3, the mass density (293.15 K, x1 = 0.131) was 999.59 ± 0.57 kg/m3 and the mass density (293.15 K, x1 = 0.1443) was 998.82 ± 0.59 kg/m3. For the same compound, the mass density (293.15 K, x1 = 0.1767) was 997.16 ± 0.59 kg/m3, the surface tension liquid-gas (298.15 K, x1 = 0.00475) was 50.01 ± 1.1 mN/m and the surface tension liquid-gas (298.15 K, x1 = 0.00655) was 45.32 ± 1 mN/m. The surface tension liquid-gas (298.15 K, x1 = 0.00903) was 40.95 ± 0.97 mN/m, the surface tension liquid-gas (298.15 K, x1 = 0.00998) was 39.69 ± 0.96 mN/m and the surface tension liquid-gas (298.15 K, x1 = 0.01274) was 36.84 ± 0.92 mN/m. The surface tension liquid-gas (298.15 K, x1 = 0.01432) was 35.6 ± 0.9 mN/m, the surface tension liquid-gas (298.15 K, x1 = 0.01655) was 34.16 ± 0.88 mN/m and the surface tension liquid-gas (298.15 K, x1 = 0.03346) was 28.91 ± 0.81 mN/m. For the same compound, the surface tension liquid-gas (298.15 K, x1 = 0.04522) was 28.33 ± 0.8 mN/m, the surface tension liquid-gas (298.15 K, x1 = 0.05825) was 28.38 ± 0.8 mN/m and the surface tension liquid-gas (298.15 K, x1 = 0.08723) was 28.3 ± 0.8 mN/m. For the same compound, the surface tension liquid-gas (298.15 K, x1 = 0.09948) was 28.24 ± 0.8 mN/m, the surface tension liquid-gas (298.15 K, x1 = 0.1147) was 28.17 ± 0.79 mN/m and the surface tension liquid-gas (298.15 K, x1 = 0.134) was 28.1 ± 0.79 mN/m. For the same compound, the surface tension liquid-gas (298.15 K, x1 = 0.1428) was 28.07 ± 0.79 mN/m, the surface tension liquid-gas (298.15 K, x1 = 0.1767) was 28.01 ± 0.79 mN/m and the mass density (298.15 K, x1 = 0.01655) was 1000.29 ± 0.45 kg/m3. The mass density (298.15 K, x1 = 0.02141) was 1001.03 ± 0.46 kg/m3, the mass density (298.15 K, x1 = 0.03346) was 1001.93 ± 0.47 kg/m3 and the mass density (298.15 K, x1 = 0.03727) was 1001.94 ± 0.48 kg/m3. For the same compound, the mass density (298.15 K, x1 = 0.04522) was 1001.66 ± 0.49 kg/m3, the mass density (298.15 K, x1 = 0.04995) was 1001.39 ± 0.5 kg/m3 and the mass density (298.15 K, x1 = 0.05825) was 1000.77 ± 0.51 kg/m3. For the same compound, the mass density (298.15 K, x1 = 0.06959) was 999.9 ± 0.52 kg/m3, the mass density (298.15 K, x1 = 0.07723) was 999.13 ± 0.56 kg/m3 and the mass density (298.15 K, x1 = 0.09004) was 998.48 ± 0.55 kg/m3. The mass density (298.15 K, x1 = 0.09948) was 997.91 ± 0.56 kg/m3, the mass density (298.15 K, x1 = 0.1172) was 996.95 ± 0.57 kg/m3 and the mass density (298.15 K, x1 = 0.131) was 996.11 ± 0.59 kg/m3. For the same compound, the mass density (298.15 K, x1 = 0.1443) was 995.31 ± 0.59 kg/m3, the mass density (298.15 K, x1 = 0.1767) was 993.56 ± 0.6 kg/m3 and the surface tension liquid-gas (303.15 K, x1 = 0.00475) was 49.13 ± 1.1 mN/m. It also gave a surface tension liquid-gas (303.15 K, x1 = 0.00655) of 44.7 ± 1 mN/m, a surface tension liquid-gas (303.15 K, x1 = 0.00903) of 40.38 ± 0.97 mN/m and a surface tension liquid-gas (303.15 K, x1 = 0.00998) of 39.11 ± 0.95 mN/m. The surface tension liquid-gas (303.15 K, x1 = 0.01274) was 36.24 ± 0.91 mN/m, the surface tension liquid-gas (303.15 K, x1 = 0.01432) was 34.99 ± 0.89 mN/m and the surface tension liquid-gas (303.15 K, x1 = 0.01655) was 33.58 ± 0.87 mN/m. For the same compound, the surface tension liquid-gas (303.15 K, x1 = 0.03346) was 28.59 ± 0.8 mN/m, the surface tension liquid-gas (303.15 K, x1 = 0.04522) was 28.14 ± 0.79 mN/m and the surface tension liquid-gas (303.15 K, x1 = 0.05825) was 28.1 ± 0.79 mN/m. It also gave a surface tension liquid-gas (303.15 K, x1 = 0.08723) of 27.92 ± 0.79 mN/m, a surface tension liquid-gas (303.15 K, x1 = 0.09948) of 27.88 ± 0.79 mN/m and a surface tension liquid-gas (303.15 K, x1 = 0.1147) of 27.84 ± 0.79 mN/m. It also gave a surface tension liquid-gas (303.15 K, x1 = 0.134) of 27.82 ± 0.79 mN/m, a surface tension liquid-gas (303.15 K, x1 = 0.1428) of 27.81 ± 0.79 mN/m and a surface tension liquid-gas (303.15 K, x1 = 0.1767) of 27.79 ± 0.79 mN/m. For the same compound, the mass density (303.15 K, x1 = 0.01655) was 998.03 ± 0.46 kg/m3, the mass density (303.15 K, x1 = 0.02141) was 998.67 ± 0.47 kg/m3 and the mass density (303.15 K, x1 = 0.03346) was 999.47 ± 0.48 kg/m3. It also gave a mass density (303.15 K, x1 = 0.03727) of 999.38 ± 0.49 kg/m3, a mass density (303.15 K, x1 = 0.04522) of 999.01 ± 0.5 kg/m3 and a mass density (303.15 K, x1 = 0.04995) of 998.64 ± 0.51 kg/m3. For the same compound, the mass density (303.15 K, x1 = 0.05825) was 997.92 ± 0.52 kg/m3, the mass density (303.15 K, x1 = 0.06959) was 996.96 ± 0.53 kg/m3 and the mass density (303.15 K, x1 = 0.07723) was 995.79 ± 0.56 kg/m3. The mass density (303.15 K, x1 = 0.09004) was 995.24 ± 0.57 kg/m3, the mass density (303.15 K, x1 = 0.09948) was 994.7 ± 0.56 kg/m3 and the mass density (303.15 K, x1 = 0.1172) was 993.63 ± 0.57 kg/m3. For the same compound, the mass density (303.15 K, x1 = 0.131) was 992.63 ± 0.59 kg/m3, the mass density (303.15 K, x1 = 0.1443) was 991.8 ± 0.6 kg/m3 and the mass density (303.15 K, x1 = 0.1767) was 989.96 ± 0.6 kg/m3. The surface tension liquid-gas (308.15 K, x1 = 0.00475) was 48.56 ± 1.1 mN/m, the surface tension liquid-gas (308.15 K, x1 = 0.00655) was 44.05 ± 1 mN/m and the surface tension liquid-gas (308.15 K, x1 = 0.00903) was 39.72 ± 0.96 mN/m. For the same compound, the surface tension liquid-gas (308.15 K, x1 = 0.00998) was 38.47 ± 0.94 mN/m, the surface tension liquid-gas (308.15 K, x1 = 0.01274) was 35.68 ± 0.9 mN/m and the surface tension liquid-gas (308.15 K, x1 = 0.01432) was 34.5 ± 0.88 mN/m. It also gave a surface tension liquid-gas (308.15 K, x1 = 0.01655) of 33.16 ± 0.86 mN/m, a surface tension liquid-gas (308.15 K, x1 = 0.03346) of 28.45 ± 0.8 mN/m and a surface tension liquid-gas (308.15 K, x1 = 0.04522) of 27.95 ± 0.79 mN/m. The surface tension liquid-gas (308.15 K, x1 = 0.05825) was 27.87 ± 0.79 mN/m, the surface tension liquid-gas (308.15 K, x1 = 0.08723) was 27.72 ± 0.79 mN/m and the surface tension liquid-gas (308.15 K, x1 = 0.09948) was 27.67 ± 0.79 mN/m. For the same compound, the surface tension liquid-gas (308.15 K, x1 = 0.1147) was 27.63 ± 0.79 mN/m, the surface tension liquid-gas (308.15 K, x1 = 0.134) was 27.58 ± 0.79 mN/m and the surface tension liquid-gas (308.15 K, x1 = 0.1428) was 27.56 ± 0.79 mN/m. The surface tension liquid-gas (308.15 K, x1 = 0.1767) was 27.47 ± 0.79 mN/m, the mass density (308.15 K, x1 = 0.01655) was 995.86 ± 0.46 kg/m3 and the mass density (308.15 K, x1 = 0.02141) was 996.41 ± 0.48 kg/m3. For the same compound, the mass density (308.15 K, x1 = 0.03346) was 997.11 ± 0.5 kg/m3, the mass density (308.15 K, x1 = 0.03727) was 996.93 ± 0.49 kg/m3 and the mass density (308.15 K, x1 = 0.04522) was 996.46 ± 0.51 kg/m3. It also gave a mass density (308.15 K, x1 = 0.04995) of 995.99 ± 0.51 kg/m3, a mass density (308.15 K, x1 = 0.05825) of 995.18 ± 0.52 kg/m3 and a mass density (308.15 K, x1 = 0.06959) of 994.11 ± 0.56 kg/m3. The mass density (308.15 K, x1 = 0.07723) was 992.85 ± 0.51 kg/m3, the mass density (308.15 K, x1 = 0.09004) was 991.96 ± 0.57 kg/m3 and the mass density (308.15 K, x1 = 0.09948) was 991.51 ± 0.58 kg/m3. The mass density (308.15 K, x1 = 0.1172) was 990.42 ± 0.58 kg/m3, the mass density (308.15 K, x1 = 0.131) was 989.31 ± 0.58 kg/m3 and the mass density (308.15 K, x1 = 0.1443) was 988.32 ± 0.59 kg/m3. For the same compound, the mass density (308.15 K, x1 = 0.1767) was 986.45 ± 0.61 kg/m3.
